The record followed here is patent publication US20090118135A1, “METHODS AND COMPOUNDS FOR REGULATING APOPTOSIS” (The Burnham Institute, priority 2007, published 2009).

In this assay the target is T1, GST-Bfl-1 (Homo sapiens, UniProt Q16548).
T1 construct: lacking their C-terminal transmembrane domains (about the last 20 amino acids) (“ΔTM”); made in house; host or cells: XL-1 Blue E. coli, pGEX 4T-1
T1 sequence (Q16548 1-155 limits assumed): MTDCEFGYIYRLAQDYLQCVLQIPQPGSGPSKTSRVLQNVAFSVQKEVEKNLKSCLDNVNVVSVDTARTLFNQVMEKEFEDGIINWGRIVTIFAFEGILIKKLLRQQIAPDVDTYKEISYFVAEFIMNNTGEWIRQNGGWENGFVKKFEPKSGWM
Briefly: Bfl-1/FITC-Bid BH3 competitive fluorescence polarization assay. It is filed as binding. To be noted: primary HTS hits, MLSCN library (PubChem SIDs), Table 5B. The protocol:
A FPA was performed to determine the binding affinity of FITC-Bid BH3 peptide to Bcl-2 proteins. […] IC50 determinations were performed using GraphPad Prism software (GraphPad, Inc., San Diego, Calif.). FPA competition assays were performed using the same procedure described above, except that 100 nM of GST-Bfl-1 protein in a volume of 45 μl was incubated with 5 μl (50 μM) test compounds in DMSO per well for 30 min prior to addition of 50 μl (5 nM) FITC-Bid BH3 peptide. The final DMSO concentration was 5% when the reactions brought to fall volume of 100 μl. Fluorescence polarization was measured after 10 min. Compounds that reduced the fluorescence polarization by 50% were considered hits.
On the technique in general: In fluorescence polarisation assays a small probe gives low polarisation when free and higher when bound to something large.
For the molecule `CCN1CCN(c2ccc(NC(=O)c3cccc4ncccc34)cc2)CC1` [Compound 842582], the “% Activity” value turned out to be 76.3% and the FRatio is reported as 0.21.
Consider `O=C1c2ccccc2CC1Sc1nnc(-c2ccccn2)o1` (centres unmarked) [Compound 842657], for which the “% Activity” value came to 65.7% and the FRatio is given as 1.17.
For the molecule `Cc1ccc2c(c1C)NC(C(=O)O)C1CC=CC21` (centres unmarked) [Compound 844096], the “% Activity” value is 98.3% and the FRatio stood at 0.53.
In the case of `N=c1c(C(=O)NCC2CCCO2)cc2c(=O)n3ccccc3nc2n1Cc1cccnc1` (centres unmarked) [Compound 844196], the “% Activity” value is 63.4% and the FRatio stood at 0.93.
For `Cc1c(NC(=O)c2cc3nc(-c4ccccc4)cc(C)n3n2)c(=O)n(-c2ccccc2)n1C` [Compound 844334], the “% Activity” value stood at 63.5% and the FRatio amounted to 0.88.
Take `c1coc(C2Nc3cccc4cccc(c34)N2)c1` [Compound 844697]: the “% Activity” value was 78.1% and the FRatio turned out to be 1.08.
For the molecule `Cc1nn2c(N)csc2nc1=O` [Compound 846443], the “% Activity” value turned out to be 56.4% and the FRatio stood at 1.35.
With `COc1ccc(OC)c(NC(=O)CCN2CCC(C)CC2)c1` [Compound 846609], the “% Activity” value worked out at 73% and the FRatio is given as 0.65.
For `COc1cccc(C(=O)NC2CC3CCCC(C2)N3CC(=O)Nc2ccccc2)c1` (centres unmarked) [Compound 847772] the same measures were 90% and 0.72.
On to `O=C(O)CCc1ccc(-c2cccs2)n1CCC(=O)O` [Compound 848328], for which the “% Activity” value turned out to be 74.6% and the FRatio turned out to be 0.59.
`Cc1cccn2c(=O)c3cc(C(=O)NCC4CCCO4)c(=N)n(Cc4cccnc4)c3nc12` (centres unmarked) [Compound 849581]: the “% Activity” value came to 60.6% and the FRatio is recorded as 0.89.
Consider `CC(=O)C1=C(O)C(=O)N(Cc2ccccc2)C1c1ccco1` (centres unmarked) [Compound 851207], for which the “% Activity” value was found to be 52.6% and the FRatio was 0.52.
`O=C(CSc1n[nH]c(-c2ccccc2)n1)c1ccc(O)c(O)c1` [Compound 851690]: the “% Activity” value amounted to 75.1% and the FRatio amounted to 0.43.
On to `Cc1ccc(C)n1C(Cc1ccccc1)C(=O)O` (centres unmarked) [Compound 852148], for which the “% Activity” value turned out to be 82.9% and the FRatio turned out to be 1.37.
As for `Oc1ccc(Nc2nc(N3CCCC3)c3ccccc3n2)cc1` [Compound 852615], the “% Activity” value was 96.1% and the FRatio is 0.46.
Turning to `COc1ccc(NC(=O)C2CCN(c3nc(C)nc4c3CCC4)CC2)cc1` [Compound 852694], the “% Activity” value is 66.2% and the FRatio came out at 1.37.
The like results for `CC1CCN(c2ccc(C(=O)O)cc2N)CC1` [Compound 852908] were, in that order, 73.3% and 0.75.
The like results for `c1coc(-c2nn3c(-c4ccco4)nnc3s2)c1` [Compound 853208] were, in that order, 60.4% and 0.83.
Regarding `CCN(CC)CCc1c(C)[nH]c(C(=O)OCc2ccccc2)c1C` [Compound 853427], the “% Activity” value stood at 70.8% and the FRatio was found to be 1.
As for `CN(C)c1ccc(NC(=O)CN2C(=O)CC(c3ccccc3)=Nc3ccccc32)cc1` [Compound 853473], the “% Activity” value was 62.6% and the FRatio is 0.6.
On to `O=C1c2ccccc2C(=O)N1CC#CCN1CCN(C2CCCCC2)CC1` [Compound 856035], for which the “% Activity” value is 56.3% and the FRatio was 0.7.
For the molecule `Cc1c[nH]c2cccc(OCC(O)CNC(C)(C)C)c12` (centres unmarked) [Compound 856249], the “% Activity” value came to 52.2% and the FRatio is 0.65.
For `N#C/C(C(N)=O)=c1/ccc2c(c1)N1C3=C(CCCC3)CC3CCCCC31N=2` (centres unmarked) [Compound 856266], the “% Activity” value amounted to 74.3% and the FRatio turned out to be 0.62.
As for `CCn1c(SC(C)C(=O)O)nc2sc3c(c2c1=O)CCC3` (centres unmarked) [Compound 856662], the “% Activity” value is on record as 95.1% and the FRatio came out at 0.59.
Turning to `CCn1c(SCC(=O)O)nc2sc3c(c2c1=O)CCC3` [Compound 856717], the “% Activity” value came to 83% and the FRatio was found to be 0.85.
With `C=CCn1c(SCC(=O)OC)nc2sc3c(c2c1=O)CCN(C)C3` [Compound 856802], the “% Activity” value stood at 53.2% and the FRatio turned out to be 1.23.
`CC(=O)C1=C(C)OC(N)=C(C#N)C1c1ccco1` (centres unmarked) [Compound 857779]: the “% Activity” value is listed as 65.4% and the FRatio is on record as 1.13.
For `O=C(CCN1CCc2ccccc21)c1ccc2c(c1)OCCO2` [Compound 857910] the same measures were 79.4% and 0.24.
Consider `Cc1ccc(N2CN=c3s/c(=C\c4cccnc4)c(=O)n3C2)cc1` [Compound 858221], for which the “% Activity” value is on record as 78.6% and the FRatio was determined as 0.88.
Regarding `Cc1ccc(C)n1Cc1ccc(C(=O)O)cc1` [Compound 858431], the “% Activity” value was 76.8% and the FRatio is on record as 0.63.
In the case of `CSc1nnc(-c2ccco2)c(-c2ccco2)n1` [Compound 859770], the “% Activity” value turned out to be 107% and the FRatio was found to be 0.53.
For the molecule `Cn1c(=N)c(S(=O)(=O)c2ccccc2)cc2c(=O)n3ccccc3nc21` [Compound 859963], the “% Activity” value was 50.4% and the FRatio is recorded as 1.49.
On to `O=S(=O)(c1ccccc1)N(CC(O)CN1CCCCC1)c1ccccc1` (centres unmarked) [Compound 859970], for which the “% Activity” value stood at 53.9% and the FRatio worked out at 0.98.
For `CC(=O)Nc1ccc(OC(=O)CC2SC(=O)NC2=O)cc1` (centres unmarked) [Compound 860139], the “% Activity” value amounted to 68.2% and the FRatio worked out at 1.06.
In the case of `O=C(CSc1nnc(-c2ccco2)c(-c2ccco2)n1)Nc1ccccc1` [Compound 860234], the “% Activity” value was determined as 71.5% and the FRatio is 1.17.
For `Cc1ccc(NC(=O)CSc2nnc(-c3ccco3)c(-c3ccco3)n2)cc1` [Compound 860242], the “% Activity” value is 56.9% and the FRatio is reported as 1.34.
For the molecule `O=C(c1coc(=O)c(Br)c1)N1CCOCC1` [Compound 860621], the “% Activity” value stood at 84.9% and the FRatio was 0.55.
As for `ClC1=CCC2CN(CCN3CCCCC3)CC2C1` (centres unmarked) [Compound 860752], the “% Activity” value came out at 67.7% and the FRatio is 0.79.
Consider `COC(=O)c1[nH]c2ccc(C)cc2c1NC(=O)CCN1CCN(Cc2ccc3c(c2)OCO3)CC1` [Compound 862218], for which the “% Activity” value was 69.7% and the FRatio came out at 0.81.
Turning to `CC1(C)CCCN(C(=O)c2coc(=O)c(Br)c2)C1` [Compound 862800], the “% Activity” value is reported as 80.8% and the FRatio is reported as 0.65.
On to `CN(C)CCSc1nc(N)c2c3c(sc2n1)CN(C)CC3` [Compound 862887], for which the “% Activity” value was 72.8% and the FRatio is 0.98.
For `O=c1nc2s/c(=C\c3ccco3)c(=O)n2nc1Cc1ccc(F)cc1` [Compound 863170], the “% Activity” value is on record as 58.4% and the FRatio was found to be 0.32.
For `COC(=O)c1[nH]c2cccc(OC)c2c1NC(=O)CCN1CCC(C(N)=O)CC1` [Compound 863493] the same measures were 71.7% and 0.76.
